The values below come from the NIST ThermoML archive (doi:10.1021/je060179e).

The conditions of this series: for mass density: 101.33 kPa, Liquid.

Molecules are shown by their SMILES. Numbers after ± are expanded uncertainties.

The term surface tension liquid-gas denotes the force per length acting along the surface. For orientation: mass density means mass per unit of volume.

Consider `CCCCO` [butan-1-ol], for which the surface tension liquid-gas by setting is: (288.15 K) 24.68 ± 0.29 mN/m; (293.15 K) 24.21 ± 0.29 mN/m; (298.15 K) 23.79 ± 0.29 mN/m; (303.15 K) 23.34 ± 0.28 mN/m; (308.15 K) 22.79 ± 0.28 mN/m. In addition, the mass density reads like this: (288.15 K) 813.32 ± 0.23 kg/m3; (293.15 K) 809.56 ± 0.23 kg/m3; (298.15 K) 805.72 ± 0.24 kg/m3; (303.15 K) 801.91 ± 0.24 kg/m3; (308.15 K) 798.07 ± 0.24 kg/m3.

Consider `CCCCCCC` [heptane], for which the surface tension liquid-gas is, setting by setting: (288.15 K) 20.81 ± 0.27 mN/m; (293.15 K) 20.27 ± 0.27 mN/m; (298.15 K) 19.68 ± 0.27 mN/m; (303.15 K) 19.19 ± 0.26 mN/m; (308.15 K) 18.93 ± 0.26 mN/m. Also, the mass density runs as follows: (288.15 K) 687.98 ± 0.65 kg/m3; (293.15 K) 683.78 ± 0.65 kg/m3; (298.15 K) 679.55 ± 0.66 kg/m3; (303.15 K) 675.3 ± 0.66 kg/m3; (308.15 K) 671 ± 0.67 kg/m3.

For the compound `CCCCCCO` [hexan-1-ol], the surface tension liquid-gas is, setting by setting: (288.15 K) 26.08 ± 0.32 mN/m; (293.15 K) 25.61 ± 0.32 mN/m; (298.15 K) 25.19 ± 0.32 mN/m; (303.15 K) 24.74 ± 0.32 mN/m; (308.15 K) 24.19 ± 0.31 mN/m. Moreover, the mass density came out at 822.28 ± 0.91 kg/m3 (288.15 K); 818.75 ± 0.92 kg/m3 (293.15 K); 815.23 ± 0.93 kg/m3 (298.15 K); 811.6 ± 0.94 kg/m3 (303.15 K); 808 ± 0.95 kg/m3 (308.15 K).

On to `CCCCCCCCO` [octan-1-ol], for which the surface tension liquid-gas runs as follows: (288.15 K) 27.41 ± 0.31 mN/m; (293.15 K) 26.94 ± 0.31 mN/m; (298.15 K) 26.52 ± 0.31 mN/m; (303.15 K) 26.07 ± 0.3 mN/m; (308.15 K) 25.52 ± 0.3 mN/m. In addition, the mass density was 828.55 ± 0.45 kg/m3 (288.15 K); 825.11 ± 0.45 kg/m3 (293.15 K); 821.64 ± 0.46 kg/m3 (298.15 K); 818.19 ± 0.46 kg/m3 (303.15 K); 814.69 ± 0.47 kg/m3 (308.15 K).
